Assay results: PMC11286589, “Population pharmacokinetics and exposure–response analyses of SAF-189s in Chinese patients with ALK+/ROS1+ non-small cell lung cancer” (Frontiers in Pharmacology, 2024)
Where “and” joins values, the source holds several entries; their conditions need not be identical. Equal values may be shown once. Read-outs that look alike come from different tables or passages of the source.

How the values were obtained:
[1] = Population pharmacokinetic (PopPK) model of SAF-189s plasma concentrations (NONMEM); format: in vivo, human
Method: The population PK analysis included data from one phase I study of SAF-189s conducted with healthy subjects (study STL31147; n = 24) and one phase I/II study conducted with Chinese patients having ALK+/ROS1+ advanced NSCLC (study SAF001; n = 299). STL31147 was a single-center, randomized, open-label, two-period (fed and fasting), and two-sequence crossover study on healthy Chinese adults. The volunteers received SAF-189s at a dose of 160 mg orally once in each period, with a washout period of 14 days. Blood samples (3 mL) were collected after each SAF-189s administration at 0 (predose), 1, 2, 3, 4, 6, 8, 10, 12, 24, 48, 72, 120, and 168 h post dosing. SAF001 was a multicenter, open-label, and single-arm phase I/II study to evaluate the safety, tolerability, pharmacokinetics, and antitumor activity of SAF-189s in patients with advanced ALK+ NSCLC (phase I) and ALK+/ROS1+ NSCLC (phase II). In the dose escalation portion, the study treatment included a single-agent 3-day PK run-in period and a continuous treatment period. The dosing regimens were 20, 40, 80, 120, 160, and 210 mg QD for 21 days in 21-day cycles during the continuous treatment period. In phase II, the patients received 80, 120, 160, and 210 mg of SAF-189s (phase IIa) or 160 mg (phase IIb) QD over 21-day cycles.
All studies were conducted in accordance with the Good Clinical Practice guidelines and Declaration of Helsinki. The protocols were approved by the independent ethics committee of each investigation site, and all subjects provided informed consent. The tumor responses were assessed by the IRC based on the Response Evaluation Criteria in Solid Tumors (RECIST) 1.1 conditions. The exposure–efficacy analyses of SAF-189s were conducted based on data from patients in the SAF001 study to explore the relationships between systemic exposure and efficacy endpoints, including the ORR, PFS, and duration of response (DOR). The exposure–safety analyses of SAF-189s were conducted based on data from patients in the SAF001 study to explore the relationships between the systemic exposure and safety endpoints, including the adverse events (AEs) of interest. In these studies, the SAF-189s plasma concentrations were analyzed using validated liquid chromatography tandem mass spectrometry within the assay range of 0.5–150 ng mL^–1.
Dataset preparation and exploratory graphical analyses were performed using R (version 4.2.0) and SAS® (version 9.4, Institute Inc., Cary, NC, United States). The PK data of SAF-189s were pooled and analyzed using a non-linear mixed-effects model. The PopPK analysis was conducted using NONMEM® software (version 7.3, ICON, Hanover, MD, United States) with first-order conditional estimations with interactions (FOCE-I). Following graphical exploratory analysis, one- and two-compartment models were evaluated; several absorption models were then tested, including first-order, zero-order, sequential zero- and first-order, and parallel first-order models with and without a lag absorption time; based on the characteristics of the elimination phase of the concentration–time profiles of SAF-189s, the linear, non-linear, and time-dependent elimination models ([Lau et al., 2019]; [Kratochwil et al., 2021]) were investigated. Interindividual variance (IIV) was then described as a log-normal distribution, and the covariance between the IIV parameters was assessed. Residual variability was assessed by comparing the proportional, additive, and combined error models. Owing to the low proportion (<1%) of post-administration samples with concentrations below the quantification limit (BQL) of the assay, the BQL data were excluded from the PopPK model development. Model selection was based on the objective function value (OFV), goodness-of-fit (GOF) plot, and robustness of parameter estimates. The ETA shrinkage was also taken into consideration when evaluating the models.
The covariates were prespecified based on their physiological and clinical relevance. […]

[2] = system: efflux transporter P-gp; settings: in vitro studies, no reference given; cited from earlier work
[3] = parameters: method as in Qin et al., 2023; settings: ref Qin et al., 2023, cited from earlier work
[4] = system: CYP3A; settings: no reference given; cited from earlier work
[5] = 5th percentile age (25 years) vs median age (53 years)
[6] = 95th percentile age (71 years) vs median age (53 years)
[7] = ALKPOT 2 or 3 or 4 vs reference 1
[8] = ALKPOT 6 (healthy) vs reference 1
[9] = age 25 year vs reference 53 year, Figure 4
[10] = age 71 year vs reference 53 year, Figure 4
[11] = high-fat meal vs fasted, single dose 160 mg
[12] = single dose 160 mg, unaffected by food

Cc1cc(Nc2ncc(Cl)c(Nc3ccccc3S(=O)(=O)C(C)C)n2)c2c(c1C1CCN(C)CC1)C[C@@H](C)O2 [SAF-189s]
AUCss geometric mean ([1]; 160 mg QD dose): 2,374 ng∙h mL^–1
AUC decrease [1, 5]: 21%
CL/F increase [1, 5]: 27%
AUC increase [1, 6]: 10%
CL/F decrease [1, 6]: 8.8%
AUCss(ug*h/L) Ratio [1, 7]: 1.18
V/F(L) Ratio [1, 7]: 0.734
AUCss(ug*h/L) Ratio ([1]; ALKPOT 5 (ROS1) vs reference 1): 1.06
V/F(L) Ratio ([1]; ALKPOT 5 (ROS1) vs reference 1): 0.917
AUCss(ug*h/L) Ratio [1, 8]: 0.979
V/F(L) Ratio [1, 8]: 0.784
AUCss higher ([1]; ALKPOT = 2, 3, 4 compared to ALKPOT = 1): 18%
V/F reduction ([1]; ALKPOT = 2, 3, 4 relative to ALKPOT = 1): 26.6%
AUCss higher ([1]; ALKPOT = 5 compared to ALKPOT = 1): 6%
V/F reduction ([1]; ALKPOT = 5 relative to ALKPOT = 1): 8.3%
V/F reduction ([1]; ALKPOT = 6 (healthy subjects) relative to ALKPOT = 1): 21.6%
AUCss lower ([1]; ALKPOT = 6 compared to ALKPOT = 1): 2.1%
effect of prior anticancer therapy on AUCss ([1]; ALKPOT covariate): less than 20%
half-life ([1]; after the first dose, typical subjects (median age 53 years, ALK+ without previous ALK inhibitor treatment)): 34.6 h
AUCss(ug*h/L) Ratio [1, 9]: 0.79
CL/F(L/h) Ratio [1, 9]: 1.27
AUCss(ug*h/L) Ratio [1, 10]: 1.1
CL/F(L/h) Ratio [1, 10]: 0.912
AUCss median value ([1]; exposure–safety analysis, all patients): 2,233 ng∙h mL^–1
ALAG1 (tlag) typical value ([1]; final PopPK model estimate): 0.483 (±0.0306) h and 0.483 h
CL1/F typical value ([1]; final PopPK model estimate): 64 (±1.51) L h^–1 and 64 L h^–1
CL2/F typical value ([1]; final PopPK model estimate): 40.3 (±6.89) L h^–1 and 40.3 L h^–1
KA typical value ([1]; final PopPK model estimate): 0.501 (±0.0444) h^−1
V/F typical value ([1]; final PopPK model estimate): 5,210(±339) L and 5,210 L
KA typical value ([1]; final PopPK model estimate, Table 2): 0.501 L h^–1
Interindividual variability ω^2 ALAG1 ([1]; final model estimate): 0.12
Interindividual variability ω^2 CL ([1]; final model estimate): 0.138
Interindividual variability ω^2 KA ([1]; final model estimate): 0.279
Interindividual variability ω^2 V ([1]; final model estimate): 0.125
ALKPOT = 6 on V/F ([1]; healthy subjects, final model estimate): 0.784
ALAG1 bootstrap estimate ([1]; non-parametric bootstrap): 0.491 h
ALKPOT = 2,3,4 on V/F bootstrap estimate ([1]; non-parametric bootstrap): 0.724
ALKPOT = 5 on V/F bootstrap estimate ([1]; non-parametric bootstrap): 0.905
ALKPOT = 6 on V/F bootstrap estimate ([1]; non-parametric bootstrap): 0.782
CL1/F bootstrap estimate ([1]; non-parametric bootstrap): 64 L h^–1
CL2/F bootstrap estimate ([1]; non-parametric bootstrap): 40.5 L h^–1
Interindividual variability ω^2 ALAG1 bootstrap estimate ([1]; non-parametric bootstrap): 0.106
Interindividual variability ω^2 CL bootstrap estimate ([1]; non-parametric bootstrap): 0.138
Interindividual variability ω^2 KA bootstrap estimate ([1]; non-parametric bootstrap): 0.276
Interindividual variability ω^2 V bootstrap estimate ([1]; non-parametric bootstrap): 0.121
KA bootstrap estimate ([1]; non-parametric bootstrap): 0.504 L h^–1
Kout bootstrap estimate ([1]; non-parametric bootstrap): 1.35 day⁻¹
V/F bootstrap estimate ([1]; non-parametric bootstrap): 5,199 L
ALKPOT = 5 on V/F ([1]; others (ROS1+ patients or unknown), final model estimate): 0.917
ALKPOT = 2,3,4 on V/F ([1]; patients with previous ALK inhibitor treatment, final model estimate): 0.734
Cmin,ss ([1]; quartile 1, estimated using the most prevalent dose): 18–60.7 ng mL^–1
Cmin,ss ([1]; quartile 2, estimated using the most prevalent dose): 60.7–79 ng mL^–1
Cmin,ss ([1]; quartile 3, estimated using the most prevalent dose): 79–108 ng mL^–1
Cmin,ss ([1]; quartile 4, estimated using the most prevalent dose): 108–182 ng mL^–1
half-life ([1]; steady state after multiple administrations, typical subjects): approximately 56.4 h
Kout ([1]; time-varying inhibition rate constant): 1.35 (±0.421) day^−1
Kout typical value ([1]; time-varying inhibition rate constant, Table 2): 1.35 day⁻¹
P-gp inhibitor [2]: inhibitor
P-gp substrate [2]: substrate
intersubject variability AUC0-t ([3]; fasted): 33.8%
intersubject variability AUC0-∞ ([3]; fasted): 34.6%
intersubject variability Cmax ([3]; fasted): 23.0%
intersubject variability AUC0-t ([3]; fed): 31.3%
intersubject variability AUC0-∞ ([3]; fed): 32.8%
intersubject variability Cmax ([3]; fed): 19.7%
geometric mean ratio AUC0-t [3, 11]: 105.1%
geometric mean ratio Cmax [3, 11]: 109.1%
Tmax (median) [3, 12]: 6 h
t½ (mean) [3, 12]: around 35 h
CYP3A substrate [4]: substrate of CYP3A
